Measured values: patent US20180271853A1, “Method of Use for Inhibitors of Epidermal Growth Factor Receptor Variant III” (METASTAT, INC., priority 2015, published 2018)
Each block holds one compound with its values, some of them ahead of it.

How the values were obtained:
[1] = target: T1, phosphoY1173-EGFRviii expressed in U87MG tumor cells (Homo sapiens, UniProt P00533, DELINS30-297G); test: Inhibition of phosphoY1173-EGFRviii in U87MG tumor cells engineered to express EGFR-viii (in-cell ELISA); assay type: cell-based; settings: for activity against EGFR-viii: FIG. 1
T1 construct: expressed in transfected cells; host or cells: U87MG (ATCC), lentiviral infection, puromycin selection
Description: Cells stably expressing EGFR-WT or EGFR-viii were maintained in the presence of 0.5 ug/ml puromycin.
All EGFR inhibitors were purchased from Selleck Chemicals, Houston TX, at a concentration of 10 mM in DMSO. […] Serial dilution of compounds was prepared using DMSO at 100× the final concentration indicated and then diluted in cell media to the final concentration indicated.
Data are expressed as EC50 and were determined using an in-cell ELISA kit (Pierce).

EGFR-viii = EGFR-viii (Homo sapiens, UniProt P00533, DELINS30-297G); settings: Ji, Zhao et al., 2006; Vivanco, Robins et al., 2012; cited from earlier work
[2] = tested on: tumors expressing EGFR-viii; settings: cited from earlier work; for benefit for GBM in clinical studies: clinical studies evaluating reversible or covalent EGFR inhibitors in GBM

EC50 ([1]; in-cell ELISA, FIG. 1, read-out: EC50 against EGFR-viii): < 50 nM
Structure (SMILES): C=CC(=O)Nc1ccc2ncnc(Nc3ccc(OCc4cccc(F)c4)c(Cl)c3)c2c1 [AST-1306]

activity against EGFR-viii [1]: weak activity
Structure (SMILES): C=CC(=O)Nc1cccc(Nc2nc(Nc3ccc(N4CCN(C(C)=O)CC4)cc3OC)ncc2C(F)(F)F)c1 [CO-1686]

Structure (SMILES): C=CC(=O)Nc1cccc(Oc2nc(Nc3ccc(N4CCN(C)CC4)cc3)ncc2Cl)c1 [WZ3146]
activity against EGFR-viii [1]: weak activity

activity against EGFR-viii [1]: weak activity
Structure (SMILES): C=CC(=O)Nc1cccc(Sc2nc(Nc3ccc(N4CCN(C)CC4)cc3)ncc2Cl)c1 [WZ8040]

Structure (SMILES): COc1cc2ncnc(Nc3ccc(F)c(Cl)c3)c2cc1NC(=O)/C=C/CN1CCCCC1 [dacomitinib]
inhibition of EGFR-viii (recent studies) (EGFR-viii): potent inhibitors of EGFR-viii

Structure (SMILES): C#Cc1cccc(Nc2ncnc3cc(OCCOC)c(OCCOC)cc23)c1 [erlotinib]
benefit for GBM in clinical studies [2]: failed to demonstrate significant benefit

Structure (SMILES): CS(=O)(=O)CCNCc1ccc(-c2ccc3ncnc(Nc4ccc(OCc5cccc(F)c5)c(Cl)c4)c3c2)o1 [lapatinib]
benefit for GBM in clinical studies [2]: failed to demonstrate significant benefit
cancer growth inhibition in clinical studies ([2]; clinical studies, GBM): insignificant cancer growth inhibition
